From patent US6417231B1, “Method and composition for delivering therapeutically effective amounts of pyruvate to a mammal” (priority 1996, dated 2002) come the findings set out here.

Series [1] in a line: Time course of blood pyruvate concentration after oral gavage (bioavailability of pyruvate). The note with it: rat; for Blood pyruvate concentration: single animals. Type of series: in vivo, male Sprague-Dawley rats. The text has this:
The basic measurement is the time course of serum pyruvate concentration following oral administration of tripyruvin, compared with that following oral administration of sodium pyruvate or a placebo.
Six male Sprague-Dawley rats, weighing 380±28 grams (mean±standard deviation), were used in the initial animal experiments. The rats were divided into three groups of two rats each, one group of two for the experimental treatment, one group for the conventional sodium pyruvate treatment, and one group for placebo. The rats were housed in hanging wire cages (two per cage) in a room maintained at 22° C., and were kept on a twelve-hour light/dark cycle with lights on at 7 AM. All animals had free access to water and to standard laboratory rodent chow; except that on nights before an experiment food was removed at 6 PM.
An initial time-course experiment was performed with the crude reaction mixture, in which tripyruvin and free pyruvate were both present (i.e., with the product of “Step 4” n the synthesis described above, without the further purification of “Step 5.”) 1.14 g of this mixture (76% sodium pyruvate, 24% tripyruvin=0.79 total pyruvate) in 2 mL sterile water was fed by gavage in a single dose. For comparison, rats were fed an equivalent amount of pyruvate as sodium pyruvate in water; or were fed a placebo comprising water only. Blood samples (250 μL) taken from a snipped tail vein were collected before feeding, and at 60, 90, 120, and 150 minutes after gavage feeding.
The assay for serum pyruvate concentration was a modification of the Sigma NADH-NAD assay. Collected blood samples were diluted 1:3 in cold 8% perchloric acid (aqueous), and the precipitates were vortexed and centrifuged. Supernatant (100 μL) was pipetted into a microtiter plate. Trizma base (25 μL) was pipetted into the plate, followed by 25 μL of aqueous NADH solution (1 g/2.2 mL). The absorbance of the solution at 340 nm was then measured as a baseline. […] dehydrogenase (50 μL, 10 U/mL) was then pipetted into the plate, and the plate was incubated at 37° C. for 3-5 minutes. Absorbance at 340 nm was again measured (to assay the extent of the reaction NADH→NAD+H^+). Standards and two levels of quality control samples were run with each plate. Results are shown in Table 1 for each of the six rats.

The nature of the next series: Solubility in water. Type of series: physicochemical. The text has this: After purification, the identity of the tripyruvin was confirmed by laser-desorption mass spectrometry, elemental analysis, and ^1H nuclear magnetic resonance.
Setting [2] is: oral gavage, compared with sodium pyruvate.

Several values for one entry are separate records, joined by “and”; a condition that tells them apart may be missing. Equal values may be shown once.

Take `CC(=O)C(=O)[O-].[Na+]` [sodium pyruvate]: the Blood pyruvate concentration in series [1] (60 min after single oral gavage dose in 2 mL water) is 0.07 mM and 0.10 mM; in series [1] (90 min after single oral gavage dose in 2 mL water) it was 0.07 mM and 0.09 mM; in series [1] (120 min after single oral gavage dose in 2 mL water), 0.12 mM; in series [1] (150 min after single oral gavage dose in 2 mL water), 0.12 mM and 0.16 mM; in series [1] (time 0 min (before gavage feeding)), 0.07 mM and 0.06 mM.

Take `CC(=O)C(=O)OCC(COC(=O)C(C)=O)OC(=O)C(C)=O` [tripyruvin, tripyruvyl glycerol]: in series [1] (setting [2]), the Bioavailability of pyruvate entry is on record as “higher” and the “Rise in blood pyruvate levels” value is given as “more rapid rise”. The Solubility in water entry in the series “Solubility in water” is on record as “freely soluble”.
